Results published in patent US20140127235A1, “TARGETING HK alpha FOR CONTROLLING BLOOD PRESSURE AND REGULATING ELECTROLYTE BALANCE” (UNIVERSITY OF FLORIDA RESEARCH FOUNDATION, INC., priority 2011, published 2014).

Experiments:
Format in all cases: in vivo, mouse
[1] = Effect of high K+ (5%) diet on physiological response of wild type mice to DOCP treatment; details: eight days after DOCP
Experimental: Deficits in K^+ homeostasis have long been known to stimulate H^+,K^+-ATPase activity and HKα subunit expression. […] For this experiment, mice were fed a high K^+ diet and then left untreated (control) or given DOCP treatment. Body weight and blood electrolytes were measured eight days after treatment and kidneys were collected for analysis of HKα, and HKα2 mRNA expression by real time PCR.
Mice were fed normal lab chow, given free access to water, and given an i.m. injection of 1.7 mg DOCP (Percorten V, Novartis Pharmaceuticals). For perfusion and expression studies, mice were sacrificed with Na^+ pentobarbital (i.p. 120 mg/kg) followed by cervical dislocation. For time course experiments, another group of animals were anesthetized with 3-4% isoflurane and aortic blood was collected into a heparinized syringe for immediate analysis of electrolytes and blood gases (Nova pHOx Plus analyzer, Nova Biomedical). For high K^+ diet studies, mice were given a normal, powdered diet (TD99131, Teklad) supplemented with KCl to equal 5% K^+ which was then made as a gel. Half of the mice were treated with DOCP. Blood and tissues were collected as in the time course experiments. For urinalysis experiments, mice were housed in metabolic cages for thirteen days and fed a normal gel diet with free access to a water bottle. On day five, mice were treated with DOCP as above. Urine and feces were collected daily. Urine electrolytes were measured on a clinical analyzer (Nova 16 analyzer, Nova Biomedical) and fecal electrolytes were measured on a digital flame photometer (Model 2655-00, Cole-Parmer).

[2] = Radiotelemetry (blood pressure, heart rate, locomotor activity) in WT and HKα1,2−/− mice, control and DOCP; details: for Mean arterial pressures / Heart rate / Locomotor activity: DOCP
Text: Age matched, male C56BL/6 WT and C56BL/6 HKα1,2^−/− mice were anesthetized using 5% isoflurane, and radiotelemetry transmitters (PA-C10, Data Sciences, St. Paul, Minn.) were implanted under sterile conditions (1-3% continuous isoflurane). The catheter was placed in the left carotid artery and the housing of the transmitter was implanted subcutaneously on the animal's right flank. Mice were allowed to recover for a period of at least 14 days prior to recordings. These mice were not subject to metabolic cage experiments or blood and tissue collections. Mice were fed a normal lab chow (Teklad 2018, 0.2% Na and 0.5% K) and allowed free access to water. DOCP treated mice received an intramuscular injection of 1.7 mg DOCP (Percorten V, Novartis Pharmaceuticals) and were fed the normal gel diet described previously supplemented with NaCl to equal 0.4% Na^+ ad libitum for 8 days with free access to water. Radiotelemetry recordings were performed one week before and one week after DOCP treatment. At the time of the control recording, mice ranged in age from 15-25 weeks. Recording were made for 2 minutes at the beginning of each hour or for 2 minutes every 10 minutes for 48 hours. Moving averages were calculated for each hour. Comparisons of systolic BP, HR, and LA were made for the main effects 1) DOCP treated versus untreated and 2) WT versus HKα1,2^−/− mice. Differences between the daytime (06:00-17:59) and nighttime (18:00-05:59) values for these parameters were also compared.
Radiotelemetry was performed in order to assess genotypic differences in systolic BP, HR and LM during normal and DOCP treatment. Example 48 hr tracings of systolic BP, HR, and LA comparing WT and HKα1,2^−/− during normal and DOCP treatment are shown in FIG. 13.

H^+,K^+-ATPase = experiment: H+,K+-ATPase-mediated H+ secretion (JH) in intercalated cells of microperfused inner cortical collecting ducts from DOCP-treated mice (BCECF-AM)
Experimental: One likely mechanism for mineralocorticoid-induced changes in acid-base homeostasis was stimulation of renal H^+,K^+-ATPase activity in response to mineralocorticoid-induced K^+ deficits. Therefore, H^+,K^+-ATPase activity was assessed in inner cortical collecting ducts from control and DOCP-treated mice. Individual intercalated cells from microperfused collecting ducts were loaded with the pH sensitive fluorescent dye, BCECF-AM. The addition of inhibitors of the Na^+/H^+ exchanger and the H^+-ATPase allowed for the measurement of H^+,K^+-ATPase-mediated H^+ secretion (JH) in response to an acute intracellular acid load (NH4Cl). The overall rate of H^+,K^+-ATPase-mediated JH in intercalated cells from control mice was quite slow (˜15H^+/min) (FIG. 1).
Additional experiments were conducted to identify which intercalated cell subtype was responsible for the DOCP-induced increase in H^+,K^+-ATPase mediated JH. Again, the rate of H^+,K^+-ATPase-mediated JH was measured in intercalated cells of inner cortical collecting ducts from control and DOCP-treated mice. At the end of the experiment, A- and B-type ICs were differentiated by peritubular Cl^− removal and return as has been described previously^12,13 The characteristic inverse responses of A- and B-type intercalated cells to Cl^− removal and return were observed (Table 2). […]
Inner cortical collecting ducts were hand dissected at 4° C., transferred to a mounting chamber and perfused as described previously.^25 The ratiometric, pH sensitive dye, BCECF-AM (15 μM, Invitrogen) was added to the luminal perfusate for 10 minutes and fluorescence measurements were performed after dye de-esterification. […] Recovery rates were calculated from the linear portion of the pH, recovery phase starting with the lowest pH, achieved. The intrinsic buffering capacity was calculated from the formula βi=ΔHi/ΔpHi where ΔHi is the change in the calculated [NH4]i and ΔpHi the change in pHi during the acid loaded phase. Acid secretion rates (JH) were calculated from the formula JH=βi*ΔpH, (U/min) and expressed as [H^+]/min. […]

CC(C)(C)C(=O)OCC(=O)[C@H]1CC[C@H]2[C@@H]3CCC4=CC(=O)CC[C@]4(C)[C@H]3CC[C@]12C [DOCP, desoxycorticosterone pivalate]
Blood [Cl−] [1]: 121 ± 1.30 mM
Blood [HCO3−] [1]: 18.2 ± 1.01 mM
Blood [K+] [1]: 4.30 ± 0.18 mM
Blood [Na+] [1]: 151 ± 0.88 mM
Body weight change [1]: -0.17 ± 0.27 g
effect on daytime or nighttime systolic BP ([2]; HKα1,2−/− mice): failed to significantly increase
Mean arterial pressures ([2]; HKα1,2−/− mice, Daytime (Inactive)): 112.7 ± 1.8 mmHg
Heart rate ([2]; HKα1,2−/− mice, Daytime): 554.8 ± 21.4 beats/min
Locomotor activity ([2]; HKα1,2−/− mice, Daytime): 3.267 ± 0.603
Mean arterial pressures ([2]; HKα1,2−/− mice, Nighttime (Active)): 118.5 ± 2.4 mmHg
Heart rate ([2]; HKα1,2−/− mice, Nighttime): 580.5 ± 20.1 beats/min
Locomotor activity ([2]; HKα1,2−/− mice, Nighttime): 5.410 ± 1.078
effect on locomotor activity (LA) ([2]; WT and HKα1,2−/− mice): did not significantly affect
effect on systolic BP during the day and night ([2]; WT mice): significantly increased
effect on HR during the night ([2]; WT mice, DOCP treatment): significant decrease
Mean arterial pressures ([2]; WT mice, Daytime (Inactive)): 112.9 ± 2.3 mmHg
Heart rate ([2]; WT mice, Daytime): 496.7 ± 17.5 beats/min
Locomotor activity ([2]; WT mice, Daytime): 3.913 ± 0.407
Mean arterial pressures ([2]; WT mice, Nighttime (Active)): 122.5 ± 2.9 mmHg
Heart rate ([2]; WT mice, Nighttime): 533.5 ± 17.2 beats/min
Locomotor activity ([2]; WT mice, Nighttime): 7.036 ± 0.735
increase in H+,K+-ATPase-mediated JH (H^+,K^+-ATPase; A-type intercalated cells, DOCP-treated versus control mice): approximately 60%
rate of H+,K+-ATPase-mediated JH (H^+,K^+-ATPase; B type ICs, DOCP-treated versus control mice): not affected
increase in H+,K+-ATPase-mediated JH (H^+,K^+-ATPase; intercalated cells from DOCP-treated mice (eight days) versus control): greater than 60%
